Laboratory results from the supplement of paper PMC10307832.

How the values were obtained:
Test in all cases: relative viability (nuclei count vs DMSO), 5 days (fraction); higher = more cells survive
[1] = compound: COC1=CC=C(C=C1)COC2=C(C=C(C=C2)CC3=CN=C(N=C3N)N)OC [GW-2580] + CS(=O)(=O)CCNCc1ccc(-c2ccc3ncnc(Nc4ccc(OCc5cccc(F)c5)c(Cl)c4)c3c2)o1 [Lapatinib] (partner 2 µM)
Method in brief: (§1)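 For relative viability, nuclei counts in treated wells were divided by those in vehicle wells. Lung cancer cell lines had been pin-tool dosed in 1536-well plates the day after seeding and cultured for 5 days, then fixed and stained in one step (final 0.05% Triton X-100, 1% formaldehyde, 1 ug/ml Hoechst) and imaged at 4×. Doses were one drug alone or a fixed anchor-drug dose plus five library-drug doses (not always all listed) in √10 steps, and values are duplicate-plate medians.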

[2] = compound: COC1=CC=C(C=C1)COC2=C(C=C(C=C2)CC3=CN=C(N=C3N)N)OC [GW-2580] + O=C(CCCCCCC(=O)Nc1ccccc1)NO [Vorinostat] (partner 1 µM)
Method in brief: as §1

[3] = compound: COC1=CC=C(C=C1)COC2=C(C=C(C=C2)CC3=CN=C(N=C3N)N)OC [GW-2580] + Nc1nc2[nH]cc(CCc3ccc(C(=O)N[C@@H](CCC(=O)O)C(=O)O)cc3)c2c(=O)[nH]1 [Pemetrexed] (partner 0.2 µM)
Method in brief: as §1

[4] = compound: COC1=CC=C(C=C1)COC2=C(C=C(C=C2)CC3=CN=C(N=C3N)N)OC [GW-2580] + Nc1ncn([C@H]2C[C@H](O)[C@@H](CO)O2)c(=O)n1 [Decitabine] (partner 2 µM)
Method in brief: as §1

[5] = compound: COC1=CC=C(C=C1)COC2=C(C=C(C=C2)CC3=CN=C(N=C3N)N)OC [GW-2580] + COc1cccc2cc(-c3nc([C@H]4CC[C@H](C(=O)O)CC4)n4ncnc(N)c34)[nH]c12 [OSI-027] (partner 0.5 µM)
Method in brief: as §1

## UMC-11
[1]; first compound 0.08 µM
  relative viability: 1.26
[1]; first compound 0.8 µM
  relative viability: 1.11
[1]; first compound 2.53 µM
  relative viability: 0.88
[1]; first compound 8 µM
  relative viability: 1.15
[2]; first compound 0.08 µM
  relative viability: 0.384
[2]; first compound 0.8 µM
  relative viability: 0.391
[2]; first compound 2.53 µM
  relative viability: 0.513
[2]; first compound 8 µM
  relative viability: 0.413
[3]; first compound 0.08 µM
  relative viability: 0.948
[3]; first compound 0.8 µM
  relative viability: 0.939
[3]; first compound 2.53 µM
  relative viability: 0.754
[3]; first compound 8 µM
  relative viability: 0.718
[4]; first compound 0.08 µM
  relative viability: 0.617
[4]; first compound 0.8 µM
  relative viability: 0.424
[4]; first compound 8 µM
  relative viability: 0.586
[5]; first compound 0.08 µM
  relative viability: 0.531
[5]; first compound 0.8 µM
  relative viability: 0.508
[5]; first compound 2.53 µM
  relative viability: 0.515
[5]; first compound 8 µM
  relative viability: 0.439
